Source: patent US6737383B1, “Herbicidal oxadiazolidines” (priority 1999, dated 2004)

Columns and labels:
cocklebur = experiment: Test B pre/postemergence cocklebur; type: in vivo, Xanthium strumarium; details: for Cocklebur plant response rating: scale of 0 to 10 where 0 is no effect and 10 is complete control
Method in brief: (§1)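 Response is a visual 0-to-10 score relative to untreated plants, where 0 means no effect and 10 means complete control, taken twelve to sixteen days after application. Treatments went onto soil at planting and onto foliage of 1- to 4-leaf plants, using a surfactant-containing non-phytotoxic solvent.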

soybean = experiment: Test B pre/postemergence soybean; type: in vivo, Glycine max; details: for Soybean plant response rating: scale of 0 to 10 where 0 is no effect and 10 is complete control
Method in brief: as §1

blackgrass = experiment: Test B pre/postemergence blackgrass; type: in vivo, Alopecurus myosuroides; details: for Blackgrass plant response rating: scale of 0 to 10 where 0 is no effect and 10 is complete control
Method in brief: as §1

smallflower flatsedge = experiment: Test B flood test smallflower flatsedge; type: in vivo, Cyperus difformis
Method in brief: (§2)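 Flood test on plants grown to the 2-leaf stage; treated plants kept in greenhouse twelve to sixteen days, then visually rated against controls on a 0 (no effect) to 10 (complete control) scale.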

velvetleaf = experiment: Test B pre/postemergence velvetleaf; type: in vivo, Abutilon theophrasti; details: for Velvetleaf plant response rating: scale of 0 to 10 where 0 is no effect and 10 is complete control
Method in brief: as §1

corn = experiment: Test B pre/postemergence corn; type: in vivo, Zea mays; details: for Corn plant response rating: scale of 0 to 10 where 0 is no effect and 10 is complete control
Method in brief: as §1

wheat = experiment: Test B pre/postemergence wheat; type: in vivo, Triticum aestivum; details: for Wheat plant response rating: scale of 0 to 10 where 0 is no effect and 10 is complete control
Method in brief: as §1

surinam grass = experiment: Test B pre/postemergence surinam grass; type: in vivo, Brachiaria decumbens; details: for B. signalgrass plant response rating: scale of 0 to 10 where 0 is no effect and 10 is complete control
Method in brief: as §1

bedstraw = experiment: Test B pre/postemergence bedstraw; type: in vivo, Galium aparine; details: Preemergence
Method in brief: as §1

bamyardgrass = experiment: Test B flood test barnyardgrass; type: in vivo, Echinochloa crus-galli
Method in brief: as §2

rice = experiment: Test B flood test rice; type: in vivo, Oryza sativa
Method in brief: as §2

pigweed = experiment: Test B pre/postemergence pigweed; type: in vivo, Amaranthus retroflexus; details: for Redroot pigweed plant response rating: scale of 0 to 10 where 0 is no effect and 10 is complete control
Method in brief: as §1

giant foxtail = experiment: Test B pre/postemergence giant foxtail; type: in vivo, Setaria faberii; details: for Giant foxtail plant response rating: scale of 0 to 10 where 0 is no effect and 10 is complete control
Method in brief: as §1

wild oat = experiment: Test B pre/postemergence wild oat; type: in vivo, Avena fatua; details: for Wild oats plant response rating: scale of 0 to 10 where 0 is no effect and 10 is complete control
Method in brief: as §1

morningglory = experiment: Test B pre/postemergence morningglory; type: in vivo, Ipomoea hederacea; details: for Morningglory plant response rating: scale of 0 to 10 where 0 is no effect and 10 is complete control
Method in brief: as §1

crabgrass = experiment: Test B pre/postemergence crabgrass; type: in vivo, Digitaria sanguinalis; details: for Crabgrass plant response rating: scale of 0 to 10 where 0 is no effect and 10 is complete control
Method in brief: as §1

[1] = Postemergence, Rate 125 g/ha, scale 0 to 10, 0 is no effect, 10 is complete control
[2] = Postemergence, Rate 250 g/ha, scale 0 to 10, 0 is no effect, 10 is complete control
[3] = Preemergence, Rate 62 g/ha, scale 0 to 10 (0 no effect, 10 complete control)
[4] = Rate 500 g/ha, Postemergence, scale 0 to 10, 0 no effect, 10 complete control
[5] = Rate 62 g/ha, flood test species, Pre-emergence, visual evaluation after twelve to sixteen days
[6] = Rate 125 g/ha, under heading Pre-emergence, flood test species, visual evaluation after twelve to sixteen days
[7] = Rate 250 g/ha, Pre-emergence, flood-test species, scale 0 to 10, 0 is no effect, 10 is complete control
[8] = Rate 500 g/ha, Pre-emergence, flood test species, scale 0 to 10 (0 no effect, 10 complete control)

Cc1nsc(Cl)c1Cn1c(=O)on(C(=O)N(c2ccccc2)C(C)C)c1=O [Compound 374]
Plant response rating, Cocklebur (cocklebur; [1]): 0 | Plant response rating, Cocklebur (cocklebur; [2]): 0 | Plant response rating, Cocklebur (cocklebur; [3]): 0 | Cocklebur plant response rating (0 to 10 scale) (cocklebur; Preemergence, Rate 125 g/ha): 0 | Cocklebur plant response rating (cocklebur; Preemergence, Rate 250 g/ha): 0 | Cocklebur plant response rating (cocklebur; Preemergence, Rate 500 g/ha): 0 | Cocklebur plant response rating (cocklebur; Rate 62 g/ha, Postemergence): 0 | Plant response rating, Cocklebur (cocklebur; [4]): 0 | Plant response rating, Soybean (soybean; [1]): 2 | Plant response rating, Soybean (soybean; [2]): 2 | Plant response rating, Soybean (soybean; [3]): 0 | Soybean plant response rating (0 to 10 scale) (soybean; Preemergence, Rate 125 g/ha): 0 | Soybean plant response rating (soybean; Preemergence, Rate 250 g/ha): 0 | Soybean plant response rating (soybean; Preemergence, Rate 500 g/ha): 0 | Soybean plant response rating (soybean; Rate 62 g/ha, Postemergence): 2 | Plant response rating, Soybean (soybean; [4]): 4 | Plant response rating, Blackgrass (blackgrass; [1]): 0 | Plant response rating, Blackgrass (blackgrass; [2]): 0 | Plant response rating, Blackgrass (blackgrass; [3]): 0 | Blackgrass plant response rating (0 to 10 scale) (blackgrass; Preemergence, Rate 125 g/ha): 2 | Blackgrass plant response rating (blackgrass; Preemergence, Rate 250 g/ha): 5 | Blackgrass plant response rating (blackgrass; Preemergence, Rate 500 g/ha): 6 | Blackgrass plant response rating (blackgrass; Rate 62 g/ha, Postemergence): 0 | Plant response rating, S. Flatsedge (0 to 10 scale, 0 is no effect, 10 is complete control) (smallflower flatsedge; [5]): 0 | S. Flatsedge plant response rating (0 to 10 scale, 0 is no effect, 10 is complete control) (smallflower flatsedge; [6]): 0 | S. Flatsedge plant response rating (smallflower flatsedge; [7]): 0 | S. Flatsedge plant response rating (smallflower flatsedge; [8]): 0 | Plant response rating, Velvetleaf (velvetleaf; [1]): 0 | Plant response rating, Velvetleaf (velvetleaf; [2]): 0 | Plant response rating, Velvetleaf (velvetleaf; [3]): 0 | Velvetleaf plant response rating (0 to 10 scale) (velvetleaf; Preemergence, Rate 125 g/ha): 0 | Velvetleaf plant response rating (velvetleaf; Preemergence, Rate 250 g/ha): 0 | Velvetleaf plant response rating (velvetleaf; Preemergence, Rate 500 g/ha): 0 | Velvetleaf plant response rating (velvetleaf; Rate 62 g/ha, Postemergence): 0 | Plant response rating, Velvetleaf (velvetleaf; [4]): 1 | Plant response rating, Corn (corn; [1]): 0 | Plant response rating, Corn (corn; [2]): 0 | Plant response rating, Corn (corn; [3]): 0 | Corn plant response rating (0 to 10 scale) (corn; Preemergence, Rate 125 g/ha): 0 | Corn plant response rating (corn; Preemergence, Rate 250 g/ha): 0 | Corn plant response rating (corn; Preemergence, Rate 500 g/ha): 0 | Corn plant response rating (corn; Rate 62 g/ha, Postemergence): 0 | Plant response rating, Corn (corn; [4]): 0 | Plant response rating, Wheat (wheat; [1]): 0 | Plant response rating, Wheat (wheat; [2]): 0 | Plant response rating, Wheat (wheat; [3]): 0 | Wheat plant response rating (0 to 10 scale) (wheat; Preemergence, Rate 125 g/ha): 0 | Wheat plant response rating (wheat; Preemergence, Rate 250 g/ha): 0 | Wheat plant response rating (wheat; Preemergence, Rate 500 g/ha): 0 | Wheat plant response rating (wheat; Rate 62 g/ha, Postemergence): 0 | Plant response rating, Wheat (wheat; [4]): 0 | Plant response rating, B. signalgrass (surinam grass; [1]): 0 | Plant response rating, B. signalgrass (surinam grass; [2]): 0 | Plant response rating, B. signalgrass (surinam grass; [3]): 0 | B. signalgrass plant response rating (0 to 10 scale, 0 is no effect, 10 is complete control) (surinam grass; Preemergence, Rate 125 g/ha): 0 | B. signalgrass plant response rating (surinam grass; Preemergence, Rate 250 g/ha): 2 | B. signalgrass plant response rating (surinam grass; Preemergence, Rate 500 g/ha): 5 | B. signalgrass plant response rating (surinam grass; Rate 62 g/ha, Postemergence): 0 | Plant response rating, B. signalgrass (surinam grass; [4]): 0 | Plant response rating, Bedstraw (bedstraw; Rate 62 g/ha, scale 0 to 10 (0 no effect, 10 complete control)): 0 | Bedstraw plant response rating (0 to 10 scale) (bedstraw; Rate 125 g/ha): 0 | Bedstraw plant response rating (bedstraw; Rate 250 g/ha, scale of 0 to 10 where 0 is no effect and 10 is complete control): 0 | Plant response rating, Barnyardgrass (0 to 10 scale, 0 is no effect, 10 is complete control) (bamyardgrass; [5]): 0 | Barnyardgrass plant response rating (0 to 10 scale, 0 is no effect, 10 is complete control) (bamyardgrass; [6]): 0 | Barnyardgrass plant response rating (bamyardgrass; [7]): 0 | Barnyardgrass plant response rating (bamyardgrass; [8]): 0 | Plant response rating, Rice (0 to 10 scale, 0 is no effect, 10 is complete control) (rice; [5]): 0 | Rice plant response rating (0 to 10 scale, 0 is no effect, 10 is complete control) (rice; [6]): 0 | Rice plant response rating (rice; [7]): 0 | Rice plant response rating (rice; [8]): 0 | Plant response rating, Redroot pigweed (pigweed; [1]): 0 | Plant response rating, Redroot pigweed (pigweed; [2]): 2 | Plant response rating, Redroot pigweed (pigweed; [3]): 0 | Redroot pigweed plant response rating (0 to 10 scale) (pigweed; Preemergence, Rate 125 g/ha): 0 | Redroot pigweed plant response rating (pigweed; Preemergence, Rate 250 g/ha): 0 | Redroot pigweed plant response rating (pigweed; Rate 62 g/ha, Postemergence): 0 | Plant response rating, Redroot pigweed (pigweed; [4]): 6 | Plant response rating, Giant foxtail (giant foxtail; [1]): 0 | Plant response rating, Giant foxtail (giant foxtail; [2]): 2 | Plant response rating, Giant foxtail (giant foxtail; [3]): 8 | Giant foxtail plant response rating (0 to 10 scale) (giant foxtail; Preemergence, Rate 125 g/ha): 9 | Giant foxtail plant response rating (giant foxtail; Preemergence, Rate 250 g/ha): 10 | Giant foxtail plant response rating (giant foxtail; Preemergence, Rate 500 g/ha): 10 | Giant foxtail plant response rating (giant foxtail; Rate 62 g/ha, Postemergence): 0 | Plant response rating, Giant foxtail (giant foxtail; [4]): 8 | Plant response rating, Wild oats (wild oat; [1]): 0 | Plant response rating, Wild oats (wild oat; [2]): 0 | Plant response rating, Wild oats (wild oat; [3]): 0 | Wild oats plant response rating (0 to 10 scale) (wild oat; Preemergence, Rate 125 g/ha): 0 | Wild oats plant response rating (wild oat; Preemergence, Rate 250 g/ha): 0 | Wild oats plant response rating (wild oat; Preemergence, Rate 500 g/ha): 0 | Wild oats plant response rating (wild oat; Rate 62 g/ha, Postemergence): 0 | Plant response rating, Morningglory (morningglory; [1]): 5 | Plant response rating, Morningglory (morningglory; [2]): 10 | Plant response rating, Morningglory (morningglory; [3]): 0 | Morningglory plant response rating (0 to 10 scale) (morningglory; Preemergence, Rate 125 g/ha): 0 | Morningglory plant response rating (morningglory; Preemergence, Rate 250 g/ha): 0 | Morningglory plant response rating (morningglory; Preemergence, Rate 500 g/ha): 0 | Plant response rating, Morningglory (morningglory; [4]): 10 | Plant response rating, Crabgrass (crabgrass; [1]): 0 | Plant response rating, Crabgrass (crabgrass; [2]): 0 | Plant response rating, Crabgrass (crabgrass; [3]): 6 | Crabgrass plant response rating (0 to 10 scale) (crabgrass; Preemergence, Rate 125 g/ha): 6 | Crabgrass plant response rating (crabgrass; Preemergence, Rate 250 g/ha): 9 | Crabgrass plant response rating (crabgrass; Preemergence, Rate 500 g/ha): 9 | Crabgrass plant response rating (crabgrass; Rate 62 g/ha, Postemergence): 0 | Plant response rating, Crabgrass (crabgrass; [4]): 3
